The source made the active and inactive calls. The calls are words filed in the database; no cut-off is given here.
Assays:
Mus musculus [1] = experiment: Induction of G-CSF production in C57BL/6J mouse model at 100 mg/kg, sc measured for 24 hrs by ELISA analysis; format: functional, organism-based
Mus musculus [2] = experiment: Radioprotective activity in C57BL/6J mouse assessed as survival rate at 100 mg/kg, sc preincubated with compound for 24 hrs followed by total body irradiation with 8.5 Gy and measured after 20 days by Kaplan-meier plot analysis; format: functional; conditions: light or radiation study, 504 h, time 21 day
Mus musculus [3] = experiment: Radioprotective activity in C57BL/6J mouse assessed as survival rate at 100 mg/kg, sc preincubated with compound for 24 hrs followed by total body irradiation with 8.5 Gy and measured after 30 days by Kaplan-meier plot analysis; format: functional; conditions: time 31 day; for survival at 100 mg/kg: Mus musculus, C57BL/6J, light or radiation study, 744 h
[4] = Stability in C57BL/6J mouse whole blood assessed as half-life; format: ADME, tissue-based
Mus musculus [5] = experiment: Induction of G-CSF production in C57BL/6J mouse model at 100 mg/kg, ip measured for 24 hrs by ELISA analysis; format: functional, organism-based
[6] = Stability in […] human plasma assessed as half-life; format: ADME, cell-free
[7] = Stability in C57BL/6J mouse plasma assessed as half-life; format: ADME, cell-free

CC(C)=CCC/C(C)=C/CC/C(C)=C/CC[C@]1(C)CCc2cc(OC(=O)c3ccccn3)cc(C)c2O1
Activity (Mus musculus [1]): Active

CC(C)=CCC/C(C)=C/CC/C(C)=C/CC[C@]1(C)CCc2cc(OCCN)cc(C)c2O1
Activity (Mus musculus [1]): Active

CC(C)=CCC/C(C)=C/CC/C(C)=C/CC[C@]1(C)CCc2cc(OCC(=O)O)cc(C)c2O1
Activity (Mus musculus [1]): Active

CC(C)=CCC/C(C)=C/CC/C(C)=C/CC[C@]1(C)CCc2cc(OC(=O)CCCCCC(=O)O)cc(C)c2O1
survival at 100 mg/kg (Mus musculus [2]): 70% | survival at 100 mg/kg (Mus musculus [3]): 90% | half-life [4]: 8.6 min | Activity (Mus musculus [1]): Active

COC(=O)CCC(=O)Oc1cc(C)c2c(c1)CC[C@@](C)(CC/C=C(\C)CC/C=C(\C)CCC=C(C)C)O2
half-life [4]: 30.3 min

CNCCOc1cc(C)c2c(c1)CC[C@@](C)(CC/C=C(\C)CC/C=C(\C)CCC=C(C)C)O2
Activity (Mus musculus [1]): Active

CC(C)=CCC/C(C)=C/CC/C(C)=C/CC[C@]1(C)CCc2cc(OCC(C)(C)CO)cc(C)c2O1
Activity (Mus musculus [1]): Active

CC(C)=CCC/C(C)=C/CC/C(C)=C/CC[C@]1(C)CCc2cc(OC(=O)Cc3cccnc3)cc(C)c2O1
Activity (Mus musculus [1]): Active

CC(C)=CCC/C(C)=C/CC/C(C)=C/CC[C@]1(C)CCc2cc(OCCCCCO)cc(C)c2O1
Activity (Mus musculus [1]): Active

CC(C)=CCC/C(C)=C/CC/C(C)=C/CC[C@]1(C)CCc2cc(OC(=O)C3CCNCC3)cc(C)c2O1
survival at 100 mg/kg (Mus musculus [2]): 70% | survival at 100 mg/kg (Mus musculus [3]): 70% | Activity (Mus musculus [1]): Active

CC(C)=CCC/C(C)=C/CC/C(C)=C/CC[C@]1(C)CCc2cc(OC(=O)CCCCC(=O)O)cc(C)c2O1
survival at 100 mg/kg (Mus musculus [2]): 70% | half-life [4]: 2.1 min | Activity (Mus musculus [1]): Active

CC(C)=CCC/C(C)=C/CC/C(C)=C/CC[C@]1(C)CCc2cc(OC(=O)CCC(N)=O)cc(C)c2O1
Activity (Mus musculus [1]): Active

CC(C)=CCC/C(C)=C/CC/C(C)=C/CC[C@]1(C)CCc2cc(OCC(C)(C)C(=O)O)cc(C)c2O1
Activity (Mus musculus [1]): Active

Cc1c(O)cc2c(c1C)O[C@](C)(CCCC(C)CCCC(C)CCCC(C)C)CC2 (some centres undefined)
Activity (Mus musculus [5]): inactive

Cc1cc(O)c(C)c2c1O[C@](C)(CCCC(C)CCCC(C)CCCC(C)C)CC2 (some centres undefined)
Activity (Mus musculus [5]): inactive

CC(C)=CCC/C(C)=C/CC/C(C)=C/CC[C@]1(C)CCc2cc(OC(=O)c3cccnc3)cc(C)c2O1
Activity (Mus musculus [1]): Active

CC(C)=CCC/C(C)=C/CC/C(C)=C/CC[C@]1(C)CCc2cc(OC(=O)C3CCN(C)CC3)cc(C)c2O1
Activity (Mus musculus [1]): Active

CC(C)=CCC/C(C)=C/CC/C(C)=C/CC[C@]1(C)CCc2cc(OC(=O)CCCC(=O)O)cc(C)c2O1
survival at 100 mg/kg (Mus musculus [2]): 70% | half-life [4]: 5.5 min | Activity (Mus musculus [1]): Active

CC(C)=CCC/C(C)=C/CC/C(C)=C/CC[C@]1(C)CCc2cc(OCCN(C)C)cc(C)c2O1
Activity (Mus musculus [1]): Active

CC(C)=CCC/C(C)=C/CC/C(C)=C/CC[C@]1(C)CCc2cc(OCCCC(=O)O)cc(C)c2O1
Activity (Mus musculus [1]): Active

CC(=O)Oc1cc(C)c2c(c1)CC[C@@](C)(CC/C=C(\C)CC/C=C(\C)CCC=C(C)C)O2
Activity (Mus musculus [1]): Active

CC(C)=CCC/C(C)=C/CC/C(C)=C/CC[C@]1(C)CCc2c(C)c(O)c(C)c(C)c2O1
Activity (Mus musculus [5]): inactive

CC(C)=CCC/C(C)=C/CC/C(C)=C/CC[C@]1(C)CCc2cc(OCCCO)cc(C)c2O1
survival at 100 mg/kg (Mus musculus [2]): 70% | Activity (Mus musculus [3]): 80% | Activity (Mus musculus [1]): Active

CC(C)=CCC/C(C)=C/CC/C(C)=C/CC[C@]1(C)CCc2cc(OC(=O)c3ccncc3)cc(C)c2O1
Activity (Mus musculus [1]): Active

CC(C)=CCC/C(C)=C/CC/C(C)=C/CC[C@]1(C)CCc2cc(OC(=O)CC(C)(C)C(=O)O)cc(C)c2O1
survival at 100 mg/kg (Mus musculus [2]): 70% | Activity (Mus musculus [1]): Active

CCN(CC)CCOC(=O)c1ccc(N)cc1 [PROCAINE]
half-life [4]: 12.3 min | half-life [6]: 0.7 min | half-life [7]: 13.2 min

CC(C)=CCC/C(C)=C/CC/C(C)=C/CC[C@]1(C)CCc2cc(OCCCCO)cc(C)c2O1
Activity (Mus musculus [1]): Active

CC(C)=CCC/C(C)=C/CC/C(C)=C/CC[C@]1(C)CCc2cc(OCCCCC(=O)O)cc(C)c2O1
Activity (Mus musculus [1]): Active

CC(C)=CCC/C(C)=C/CC/C(C)=C/CC[C@]1(C)CCc2c(C)c(O)cc(C)c2O1
Activity (Mus musculus [1]): Active

CC(C)=CCC/C(C)=C/CC/C(C)=C/CC[C@]1(C)CCc2cc(OC(=O)CN(C)C)cc(C)c2O1
survival at 100 mg/kg (Mus musculus [2]): 70% | Activity (Mus musculus [1]): Active

CC(C)=CCC/C(C)=C/CC/C(C)=C/CC[C@]1(C)CCc2cc(O)c(C)c(C)c2O1
Activity (Mus musculus [1]): Active

CC(C)=CCC/C(C)=C/CC/C(C)=C/CC[C@]1(C)CCc2cc(OCCC(=O)O)cc(C)c2O1
Activity (Mus musculus [1]): Active

Cc1cc(O)cc2c1O[C@](C)(CCCC(C)CCCC(C)CCCC(C)C)CC2 (some centres undefined)
Activity (Mus musculus [5]): inactive

CCCC(CCC)C(=O)Oc1cc(C)c2c(c1)CC[C@@](C)(CC/C=C(\C)CC/C=C(\C)CCC=C(C)C)O2
Activity (Mus musculus [1]): Active

Cc1c(C)c2c(c(C)c1O)CC[C@@](C)(CCCC(C)CCCC(C)CCCC(C)C)O2 (some centres undefined)
Activity (Mus musculus [5]): inactive

CC(C)=CCC/C(C)=C/CC/C(C)=C/CC[C@]1(C)CCc2cc(OC(=O)/C=C/C(=O)O)cc(C)c2O1
survival at 100 mg/kg (Mus musculus [2]): 70% | survival at 100 mg/kg (Mus musculus [3]): 90% | half-life [4]: 24.1 min | Activity (Mus musculus [1]): Active

Source: ChEMBL document CHEMBL6087386, “Radioprotective effectiveness of a novel delta-tocotrienol prodrug on mouse hematopoietic system against 60Co gamma-ray irradiation through inducing granulocyte-colony stimulating factor production” (Eur J Med Chem, 2024)
